Measured values reported in paper PMC9916616, “TZD-Based Hybrid Molecules Act as Dual Anti-Mycobacterium tuberculosis and Anti-Toxoplasma gondii Agents” (International Journal of Molecular Sciences, 2023).
Values after ≈ are worked out from the molar mass of the structure shown. Like-named read-outs stand apart in the source and are kept apart here.

Key:
[1] = system: Toxoplasma gondii RH-GFP tachyzoites; assay: In vitro anti-Tg assay (RH-GFP tachyzoite proliferation in Hs27 cells); format: cell-based; conditions: for SI (selectivity index, CC30/IC50Tg): CC30 in Hs27 / IC50Tg; for IC50: Toxoplasma gondii, HS27, 96 h, read-out: IC50Tg in Tg-Infected Hs27 Cells
T98G glioblastoma cells = assay: Cytotoxicity against human glioblastoma T98G cells (MTT); format: cell-based; conditions: 24 h, read-out: IC50 against T98G cells
Procedure: The T98G glioblastoma cells (ATTC, CRL-1690, Manassas, VA, USA) were cultured in Dulbecco’s Modified Eagle Medium (DMEM, high glucose) (Sigma Aldrich, St. Louis, MO, USA), supplemented with 10% heat-inactivated FBS, penicillin (100 U/mL), and streptomycin (100 U/mL) (Sigma Aldrich, St. Louis, MO, USA). Cells were maintained in a humidified atmosphere of 5% CO2 and 95% air at 37 °C. Stock solutions of the investigated compounds (2, 7, 8 and 10, and temozolomide) were prepared by dissolving solid substances in sterile DMSO. T98G glioblastoma cells were seeded into 96-well sterile plates at a density of 4 × 10^4 cells/mL. After 24 h of incubation, the medium was removed from each well, and then the cells were incubated for the next 24 h with different concentrations of the investigated compounds ([…]) in the medium that contained 2% FBS. Viability of the T98G cells was evaluated using MTT assay. In brief, after 24 h of incubation of the cells with varying concentrations, 15 μL of MTT solution (5 mg/mL) was added to each well. After 3 h of incubation, […] (per well) of 10% SDS buffer solution was added. After overnight incubation, the absorbance was measured at 570 nm using a microplate reader (Epoch, BioTek Instruments, Winooski, VT, USA). Experiments were repeated three times, and the measurements in each experiment were run in quadruplicate. Viability of the investigated cells was expressed as % of the viability of the untreated cells.

in vitro = in vitro ADME; conditions: PAMPA, pH 7.4
Procedure: BBB permeability of 2, 7, 8, and 10 was investigated using a parallel artificial membrane permeability assay (PAMPA) method. The PAMPA system, which consisted of a 96-well microfilter plate, was divided into the following two chambers: a donor at the bottom and an acceptor at the top, separated by a 120 µm thick microfilter disc coated with BBB lipid solution (Pion, Inc., Billerica, MA, USA). The solutions of 2, 7, 8, and 10 were prepared in dimethylsulfoxide (DMSO) at 4 mg/mL concentration, and then diluted with Prisma buffer (pH = 7.4) to obtain the donor drug solution with the final nominal concentration of 20 µg/mL. Then, 180 µL of the donor solution was added to the donor wells. Subsequently, each filter membrane of the top plate was coated with 5 µL of BBB-1 lipid solution (Pion Inc., Billerica, MA, USA) and the acceptor well was filled with 200 µL of brain sink buffer (BSB). The acceptor plate and the donor plate were sandwiched together and incubated at 37 °C for 180 min.
The permeability coefficient value (Pe) was calculated using the following equation: Pe=−ln (1−CA/Cequilibrium)/S×(1/VD+1/VA)×t where VD—donor volume, VA—acceptor volume, Cequilibrium—equilibrium concentration, Cequilibrium=CD×VD+CA×VA/VD+VA , CD—donor concentration, CA—acceptor concentration, S—membrane area and t—incubation time (in seconds).

[2] = system: Danio rerio embryos and larvae; assay: Fish embryo toxicity test (FET); format: in vivo; conditions: for Toxicity to zebrafish embryos and larvae: 5 µg/mL and 10 µg/mL, within 96 h of observation; for Mortality and deformity / Concentration at which the impact on occurrence of deformations was noticeable: zebrafish, 96 h exposure; for Mortality and deformity: concentrations above 50 μg/mL
Procedure: Danio rerio (Experimental Medicine Centre, Medical University of Lublin, Poland) were maintained at 28 ± 0.5 °C, under a 14/10 h light/dark cycle with standard aquaculture conditions. After mating, the fertilized eggs were collected within 30 min. Embryos were reared in E3 embryo medium (pH 7.1–7.3; […]) in an incubator (IN 110 Memmert GmbH, Germany) at 28 ± 0.5 °C. The eggs were examined to remove the unfertilized, coagulated and damaged samples. The FET test was performed based on the OECD Guidelines for the Testing Chemicals, Test No. 236. TZD hybrids were weighted, dissolved in DMSO as stock solutions, and diluted in E3 embryo medium to the indicated treatment concentrations. The stock of TZD hybrids and dilutions in E3 embryo medium were freshly prepared before testing. Embryos were incubated at each concentration (5, 10, 15, 25, 50, 75; 100 μg/mL) of TZD hybrids. The final DMSO concentration had no detectable effects on zebrafish development. The test was conducted in 24-well plates, with 5 embryos per well and 10 per group, in triplicate. The covered plates were kept at 28 ± 0.5 °C under the light/dark conditions (12 h/12 h). Embryonic viability, and the malformation rates of each treatment group were recorded at 24, 48, 72, and 96 hpf. All experiments were conducted in accordance with the National Institute of Health Guidelines for the Care and Use of Laboratory Animals and the European Community Council Directive for the Care and Use of Laboratory Animals (2010/63/EU). For the experiments on larvae up to 5 dpf, the agreement of the Local Ethical Commission is not required.

human red blood cells = assay: Hemolytic activity determination; format: cell-based
Procedure: Human red blood cell (RBC) concentrate was obtained from the Regional Blood Donation and Transfusion Centre (Lublin, Poland). The RBC concentrate (5 mL) was washed three times with sterile PBS and centrifuged at 500× g for 3 min. The obtained pellet was resuspended using sterile PBS in order to obtain a 2% suspension of RBCs, which was subsequently mixed with 1 mL of different concentrations (i.e., […]) of 2, 7, 8, and 10. The mixtures were incubated at 37 °C for 30 min and centrifuged at 1400× g for 10 min. The amount of free hemoglobin in the supernatants was measured spectrophotometrically at 405 nm. Negative and positive controls were performed by incubating RBCs with sterile PBS and 0.1% Triton-X, respectively. Each experiment was run in triplicate.

[3] = concentration reducing Hs27 viability by 30%, MTT, 24 h

| Compound | CC30 in Hs27 Cells (Hs27 cells; [3]) | SI (selectivity index, CC30/IC50Tg) [1] | IC50 [1] | CC30 in Hs27 Cells (Hs27 cells; human) | IC50 (T98G glioblastoma cells) | Papp at 180 min, 20 µg/mL (in vitro) | Toxicity to zebrafish embryos and larvae [2] | Mortality and deformity [2] | Hemolytic activity (in words) (human red blood cells) | Concentration at which the impact on occurrence of deformations was noticeable [2] |
| --- | --- | --- | --- | --- | --- | --- | --- | --- | --- | --- |
| O=C1C(O)=C([C@H]2CC[C@H](c3ccc(Cl)cc3)CC2)C(=O)c2ccccc21 [ATO, atovaquone, reference compound] | 54.26 µg/mL (≈ 148 µM) | 227.55 | 0.24 µg/mL (≈ 0.654 µM) | – | – | – | – | – | – | – |
| CCc1nc(N)nc(N)c1-c1ccc(Cl)cc1 [PYR, pyrimethamine, reference compound] | 49.62 µg/mL (≈ 200 µM) | 17.38 | 2.86 µg/mL (≈ 11.5 µM) | – | – | – | – | – | – | – |
| Nc1ccc(S(=O)(=O)Nc2ncccn2)cc1 [SDZ, sulfadiazine, reference compound] | – | 1.78 | 1250 µg/mL (≈ 5010 µM) | 2230.61 µg/mL (≈ 8910 µM) | – | – | – | – | – | – |
| COc1cc(Cc2cnc(N)nc2N)cc(OC)c1OC [TRI, trimethoprim, reference compound] | – | 5.53 | 14.8 µg/mL (≈ 50.9 µM) | 81.82 µg/mL (≈ 282 µM) | – | – | – | – | – | – |
| Cn1nnc2c(C(N)=O)ncn2c1=O [Temozolomide, temozolomide, reference compound] | – | – | – | – | > 100 µg/mL | – | – | – | – | – |
| O=C(/C=C1\SC(=O)NC1=O)Oc1cccc(/C=N/NC(=O)c2ccncc2)c1 [compound 1] | 128.27 µg/mL (≈ 324 µM) | 9.92 | 12.9 µg/mL (≈ 32.6 µM) | – | – | – | – | – | – | – |
| O=C(CC1SC(=O)NC1=O)Oc1ccc(/C=N/NC(=O)c2ccncc2)cc1 (centres unmarked) [compound 2] | >995.98 µg/mL | >118.93 | 8.37 µg/mL (≈ 21 µM) | – | 19.4 ± 1.13 µg/mL (≈ 48.6 µM) | 12.4 ± 1.02 ×10⁻⁶ cm/s | not toxic | 100% | no specific hemolytic activity | – |
| COc1cc(/C=N/NC(=O)c2ccncc2)ccc1OC(=O)CC1SC(=O)NC1=O (centres unmarked) [compound 3] | >1071.05 µg/mL | >48.35 | 22.1 µg/mL (≈ 51.7 µM) | – | – | – | – | – | – | – |
| CCOc1cc(/C=N/NC(=O)c2ccncc2)ccc1OC(=O)CC1SC(=O)NC1=O (centres unmarked) [compound 4] | 654.42 µg/mL (≈ 1480 µM) | 16.77 | 39 µg/mL (≈ 88.2 µM) | – | – | – | – | – | – | – |
| O=C(CC1SC(=O)NC1=O)Oc1ccc(/C=N/NC(=O)c2ccncc2)cc1Cl (centres unmarked) [compound 5] | >1082.10 µg/mL | >44.48 | 24.3 µg/mL (≈ 56.2 µM) | – | – | – | – | – | – | – |
| O=C(CC1SC(=O)NC1=O)Oc1ccc(/C=N/NC(=O)c2ccncc2)cc1Br (centres unmarked) [compound 6] | >1193.22 µg/mL | >43.81 | 27.2 µg/mL (≈ 57.1 µM) | – | – | – | – | – | – | – |
| NC(=S)N/N=C/c1ccc(OC(=O)CC2SC(=O)NC2=O)cc1 (centres unmarked) [compound 7] | >880.97 µg/mL | >148.28 | 5.94 µg/mL (≈ 16.9 µM) | – | > 100 µg/mL | 23.1 ± 0.71 ×10⁻⁶ cm/s | not toxic | 100% | no specific hemolytic activity | 25000 ng/mL |
| NC(=S)N/N=C/c1ccc(OC(=O)CC2SC(=O)NC2=O)c(Cl)c1 (centres unmarked) [compound 8] | >967.09 µg/mL | >110.67 | 8.74 µg/mL (≈ 22.6 µM) | – | > 100 µg/mL | 26.1 ± 1.3 ×10⁻⁶ cm/s | not toxic | 100% | no specific hemolytic activity | 25000 ng/mL |
| NC(=S)N/N=C/c1ccc(OC(=O)CC2SC(=O)NC2=O)c(Br)c1 (centres unmarked) [compound 9] | >1078.21 µg/mL | >87.75 | 12.3 µg/mL (≈ 28.5 µM) | – | – | – | – | – | – | – |
| NC(=S)N/N=C/c1ccc(OC(=O)/C=C2\SC(=O)NC2=O)cc1 [compound 10] | 312.27 µg/mL (≈ 891 µM) | 58.71 | 5.32 µg/mL (≈ 15.2 µM) | – | 94.6 ± 6.16 µg/mL (≈ 270 µM) | 24.4 ± 0.93 ×10⁻⁶ cm/s | not toxic | 100% | no specific hemolytic activity | – |
| COc1cc(/C=N/NC(N)=S)ccc1OC(=O)/C=C1\SC(=O)NC1=O [compound 11] | >951.00 µg/mL | >78.81 | 12.1 µg/mL (≈ 31.7 µM) | – | – | – | – | – | – | – |
| NC(=S)N/N=C/c1ccc(OC(=O)/C=C2\SC(=O)NC2=O)c(Cl)c1 [compound 12] | >962.05 µg/mL | >94.59 | 10.2 µg/mL (≈ 26.4 µM) | – | – | – | – | – | – | – |
